# Entries after “also recorded” stand apart in the source; their conditions may differ. Non-standard residues stand in square brackets, D forms with d. Residues, ends and D or L forms follow the SMILES beside them.
# Legend:
# [1] = Fetal weight after kisspeptin treatment (FIG. 6); type: in vivo
# serum LH = assay: Serum LH in orchidectomized (castrated) male rats, icv injections; type: in vivo, rat; conditions: 1 nmol at 0, 60 and 120 min; significant at 240 min
# Procedure: In addition, repeated icy injection of the peptide 234 was also conducted in orchidectomized (ORX) rats. The animals were subjected to bilateral ORX via the scrotal route, and after 1-wk after surgery were subjected to cannula implantation as described above. The test involved three intracerebral injections of the antagonist (1 nmol; at 0-, 60- and 120-min of the procedure) and blood sampling by jugular venipuncture in basal conditions (0-min) and 15-min after each icy injection. Additional blood samples were obtained at 180- and 240-min after central administration of peptide 234. For each time-point, 10-12 samples were taken per group.
# Serum LH levels were measured in a volume of 50 μl using a double-antibody method and radioimmunoassay kits supplied by the NIH (Dr. AF Parlow, NIDDK). […] For each hormone, all samples were measured in the same assay. […]
# Hormonal determinations were conducted in duplicate, with a minimal total number of 10 samples per group. When appropriate, in addition to individual time-point measurements, integrated LH secretory responses were calculated as the area under the curve (AUC), following the trapezoidal rule. […] Results were analyzed for statistically significant differences using Student t-test or ANOVA followed by Student-Newman-Keuls multiple range test (SigmaStat 2.0). […]
# [2] = tested on: plasma LH, GH, prolactin and cortisol; assay: Central (third ventricle) infusion in OVX ewes: plasma LH, GH, prolactin, cortisol; type: in vivo, sheep
# Description: Adult Corriedale ewes were housed under natural lighting and were bilaterally ovariectomized (OVX) at least 1 month before any experimental manipulations. Permanent indwelling third cerebral ventricular (3V) cannulae were implanted in a subsequent surgical procedure as previously described (Barker-Gibb et al., 1995, J. Endocrinol., 147:565-79). Approximately two weeks after 3V surgery, one external jugular vein was cannulated for blood sampling and animals housed in single pens; cannulae were kept patent with heparinized saline.
# Ewes were assigned to two treatment groups (n=4 per group); kisspeptin antagonist (diluted in artificial cerebrospinal fluid, aCSF; 150 mM NaCl, 1.2 mM CaCl2, 1 mM MgCl2, 2.8 mM KCl) or control (aCSF only). The following day, infusion lines were connected to 3V cannulae and blood sampling commenced at 07.00 h. Samples were collected every 10 min. After 3 h of sampling, kisspeptin antagonist (or control) was infused into the 3V at a dose of 40 μg/h for 1 h, with an initial loading dose of 10 μg. Both kisspeptin antagonist and vehicle were infused at 200 μl/h for 1 h using Graseby® MS16A infusion pumps (Smiths Medical Australasia Pty. Ltd., Gold Coast, Qld, Australia). After infusion, 3V lines remained in place and blood sampling continued for a further 2 h (total of 6 h). Plasma was harvested immediately from samples, and frozen at −20 C until assayed.
# Plasma LH concentrations were measured in duplicate, using the method of Lee et al. (1976, J. Reprod. Fertil., 46:1-6) with NIH-oLH-518 as standard. Assay results were calculated using the program of Burger et al. (1972, J. Lab. Clin. Med., 80:302-12). Assay sensitivity was 0.08 ng/ml and the intra-assay coefficient of variation was less than 10% over the range of 0.3-12.8 ng/ml. A pulse analysis of the LH data was performed based on the method described for GnRH (Clarke, 1993, Endocrinology, 133:1624-32).
# All experimental procedures were conducted under a protocol approved by the Monash School of Biomedical Sciences Animal Ethics Committee. Adult Corriedale ewes were housed under natural lighting and were bilaterally ovariectomized (OVX) at least 1 month before any experimental manipulations. Permanent indwelling third cerebral ventricular (3V) cannulae were implanted in a subsequent surgical procedure as previously described (49). Approximately 2 weeks after 3V surgery, one external jugular vein was cannulated for blood sampling and animals housed in single pens; cannulae were kept patent with heparinized saline. Ewes were assigned to two treatment groups (4/group); peptide 234 (diluted in artificial cerebrospinal fluid, aCSF; 150 mM NaCl, 1.2 mM CaCl2, 1 mM MgCl2, 2.8 mM KCl) or control (aCSF only). The following day, infusion lines were connected to 3V cannulae and blood sampling commenced at 07.00 h. Samples were collected every 10 min. After 3 h of sampling, peptide 234 (or control) was infused into the 3V at a dose of 40 μg/h for 1 h, with an initial loading dose of 10 μg. Both peptide 234 and vehicle were infused at 200 μl/h using Graseby® MS16A infusion pumps (Smith Medical Australasia Pty. Ltd.). After infusion, 3V lines remained in place and blood sampling continued for a further 2 h (total of 6 h). Plasma was harvested immediately from samples, and frozen at −20 C until assayed.
# Plasma LH concentrations were measured in duplicate, with NIH-oLH-518 as standard (49). Assay sensitivity was 0.1 ng/ml and the intra-assay coefficient of variation was less than 10% over the range of 0.3-12.8 ng/ml. Pulse analysis of the plasma LH data was as previously described (36). Plasma samples were assayed for GH in duplicate using the standard NIDDK-oGH-I-4 and NIDDK-anti-oGH-2 antiserum (50). The assay sensitivity was 1 ng/ml, the intra-assay CV was less than 10% between 4 and 51 ng/ml and the inter-assay CV was 20%.
# Plasma prolactin concentrations were measured in duplicate using Sigma, Lot 114F-0558, NOL-7135 as standard (50). […]
# LH receptors = LH receptors (Homo sapiens, UniProt P22888); assay: Binding to LH receptors (data not shown)
# [3] = before, during or after infusion
# LH receptors, sequence (P22888 27-699): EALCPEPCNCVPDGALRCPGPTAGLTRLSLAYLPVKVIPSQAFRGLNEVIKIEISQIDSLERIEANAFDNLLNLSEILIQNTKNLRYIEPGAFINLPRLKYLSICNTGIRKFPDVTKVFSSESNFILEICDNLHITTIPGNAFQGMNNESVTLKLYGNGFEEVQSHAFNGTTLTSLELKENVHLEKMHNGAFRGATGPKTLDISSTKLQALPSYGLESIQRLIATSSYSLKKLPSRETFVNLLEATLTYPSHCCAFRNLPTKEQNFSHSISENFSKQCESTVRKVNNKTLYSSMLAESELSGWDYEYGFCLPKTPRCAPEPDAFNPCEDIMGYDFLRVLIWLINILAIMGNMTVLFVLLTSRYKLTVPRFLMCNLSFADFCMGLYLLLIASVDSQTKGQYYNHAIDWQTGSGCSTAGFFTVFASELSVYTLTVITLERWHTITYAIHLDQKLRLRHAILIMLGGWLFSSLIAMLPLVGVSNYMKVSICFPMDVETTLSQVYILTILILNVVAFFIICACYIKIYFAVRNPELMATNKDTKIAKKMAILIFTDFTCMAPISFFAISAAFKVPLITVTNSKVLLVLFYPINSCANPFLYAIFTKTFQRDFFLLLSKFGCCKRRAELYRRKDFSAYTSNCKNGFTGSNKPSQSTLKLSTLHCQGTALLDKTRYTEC
binding to LH receptors (LH receptors),SMILES,fetal weight [1],serum LH levels in castrated males (serum LH),Mean GH ([2]; After Infusion) [ng/mL],Mean LH ([2]; After Infusion),"LH pulse amplitude ([2]; After Infusion (240-360 min), listed as Peptide-234) [ng/mL]","LH pulse amplitude ([2]; After Infusion (240-360 min), listed as peptide 234)",Mean GH ([2]; Before Infusion) [ng/mL],Mean LH ([2]; Before Infusion) [ng/mL],LH pulse amplitude ([2]; Before Infusion (0-180 min)) [ng/mL],Mean LH ([2]; During Infusion) [ng/mL],"LH pulse amplitude ([2]; During Infusion (180-240 min), 40 μg/h, loading dose 10 μg) [ng/mL]","Mean GH ([2]; During Infusion, listed as Peptide-234) [ng/mL]","Mean GH ([2]; During Infusion, listed as peptide 234)",number of LH secretory pulses ([2]; after ventricular administration),"cortisol concentrations [2, 3]","prolactin concentrations [2, 3]"
,"CC(C)C[C@H](NC(=O)CNC(=O)[C@H](Cc1ccccc1)NC(=O)[C@H](CO)NC(=O)[C@H](CC(N)=O)NC(=O)[C@H](Cc1c[nH]c2ccccc12)NC(=O)[C@H](CC(N)=O)NC(=O)[C@@H](N)Cc1ccc(O)cc1)C(=O)N[C@@H](CCCNC(=N)N)C(=O)N[C@@H](Cc1ccccc1)C(N)=O [Kiss, reference compound]",decreased,,,,,,,,,,,,,,,
did not bind,CC(=O)N[C@H](C)C(=O)N[C@@H](CC(N)=O)C(=O)N[C@@H](Cc1c[nH]c2ccccc12)C(=O)N[C@@H](CC(N)=O)C(=O)NCC(=O)N[C@@H](Cc1ccccc1)C(=O)NCC(=O)N[C@H](Cc1c[nH]c2ccccc12)C(=O)N[C@@H](CCCNC(=N)N)C(=O)N[C@@H](Cc1ccccc1)C(N)=O [Peptide 234] (Ac-[dA]NWNGFG[dW]RF-NH2),,inhibited; also recorded: tended to reduce; also recorded: blocked the increase in LH,9.11 ± 1.44,significant reduction; also recorded: reduced,0.68 ± 0.05,significant reduction; also recorded: diminished amplitude; also recorded: markedly reduced,5.11 ± 1.48,2.73 ± 0.43,1.63 ± 0.28,2.89 ± 0.55,1.82 ± 0.52,14.07 ± 2.78,significant increase; also recorded: increased; also recorded: appeared to increase,markedly reduced,no effect,no effect

# Source: patent publication US8916681B2, “Compound, use and method” (Medical Research Council, priority 2007, dated 2014)
